Legend:
[1] = system: edema of the ear of the mouse induced with croton oil; experiment: edema of the ear of the mouse induced with croton oil; assay type: in vivo; settings: for equipotent amount per ear for inhibition of inflammation: topical, with 70 μg croton oil, 4 hours
Protocol: The topic activity which inhibits inflammation and which is presented by laminarin sulphate, has been tested in the model constituted by the edema of the ear of the mouse induced with croton oil. The control was indomethacin. The tested animals were male mice of the type Swiss CD-1 whose weight was 20 to 25 g. Three groups of tests were carried out on three groups of animals. The first group is a negative control group wherein only the pro-inflammatory agent consisting of croton oil was used. The second group is a positive control group and comprises the use of croton oil and of indomethacin (200 nMol/ear which corresponds to 71.56 μg/ear). The third group relates to the use of laminarin sulphate and comprises the use of 70 μg of croton oil and of increasing amounts of laminarin sulphate (100, 250, 500, 750 and 1000 μg/ear).
In the case of the control groups, of the group of reference and of the group comprising the use of the different concentrations of laminarin sulphate, 10 mice were used each time. […] On each ear (surface of about 1 cm^2) 70 μg of croton oil were applied at the same time as indomethacin or laminarin sulphate or dexamethasone. Four hours later, samples having a diameter of 7 mm were cut up and weighed.
For the statistical exploitation an analysis of the variance (ANOVA) as well as the Scheffe test were carried out.

thrombin [2] = experiment: specific anti-thrombin test using chromogeneous substrates; assay type: biochemical
From the text: (§1) The effect in the case of the duration of thrombin can be considered as being due to an inhibition of thrombin dependent from the cofactor II heparin. […] For that reason and due to the better effect in the systems of anti-inflammatory tests, the profile “utility/risk” moves in the case of laminarin sulphate unequivocally in the sense of an anti-inflammatory effect. It follows that the anti-inflammatory properties of laminarin sulphate can be advantageously used without the apprehension of undesirable side effects on coagulation.

[3] = system: human chimera Fc of L-selectin; experiment: cellular adhesion on immobilized L-selectin under static conditions (LS 180 cells); assay type: cell-based
human chimera Fc of L-selectin, sequence (P14151 39-318 limits assumed, change not shown): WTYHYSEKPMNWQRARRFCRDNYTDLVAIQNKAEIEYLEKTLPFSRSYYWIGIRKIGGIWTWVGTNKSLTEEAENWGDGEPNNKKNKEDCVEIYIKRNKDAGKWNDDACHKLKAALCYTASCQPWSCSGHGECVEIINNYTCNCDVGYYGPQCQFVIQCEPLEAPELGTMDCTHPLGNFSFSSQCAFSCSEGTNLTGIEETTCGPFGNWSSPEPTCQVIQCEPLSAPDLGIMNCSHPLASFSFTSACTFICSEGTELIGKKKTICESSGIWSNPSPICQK
From the text: (§2) Test 3: Influence on the Adhesion of the Cells Induced by Selectin
(§3) Consequently, the effect of laminarin sulphate has been examined through the direct quantification of the cells bond to the selectins immobilized on microplates.
(§4) The influence of the laminarin sulphate on the adhesion of the cells due to the selectins has been studied first under static conditions as schematically shown on FIG. 3a (E-selectins or P-selectins) and 3b (L-selectins). The selectin has been deposited on a microtitration plate; in that respect and in the case of L-selectin the human chimera Fc of L-selectin has been used. Then, the plate was incubated with the test substance and with cells carrying the ligands of the corresponding selecting, that is to say in the case of L-selectin the human cellular line LS 180 of the adenocarcinoma of the colon and in the case of the selectins P and E the human lymphomic cellular line U 937.
(§5) The number of cells bond to the microtitration plate after washing and subsequent lysis of these cells was determined and their lactate dehydrogenase content was determined by way of an enzymatic reaction.

[4] = system: intrinsic system of the coagulation; experiment: coagulation test APTT; assay type: biochemical
From the text: (§6) The anti-coagulant activity which depends from the concentration of laminarin sulphate has been determined in comparison with that of heparin in the classical coagulation tests APTT or “Aktivierte partielle Thromboplastin-Zeit”, of the duration of the prothrombin, by way of the test so called “HEPTEST” and the duration of the thrombin. The APTT reflects an interaction with the intrinsic system of the coagulation while the duration of prothrombin reflects an interaction with the extrinsic coagulation; the so called “HEPTEST” is a classical test for the measurement of the inhibiting activity of heparin with respect to the Xa factor and the duration of thrombin corresponds to the last step of the coagulation, i.e. the formation of fibrins induced by the thrombin. In contradiction with that of heparin, the activity of laminarin sulphate in the so called “HEPTEST” is more than 20 times weaker. […] The specific activity (IU/mg) in the APTT represents 30% of the activity of heparin and in the case of the duration of thrombin it represents 60%. In order to totally prevent the coagulation it is convenient to use in the case of APTT a concentration 4 times higher and in the case of the duration of thrombin a concentration 20 times higher.

[5] = system: MDA-MB-231, MCF, U937, LS180 cellular lines; experiment: cytotoxicity tests (5 days proliferation with crystal violet or MTT, acute LDH kit); assay type: cell-based, human; settings: highest tested concentration, 100 μg/ml
Protocol: In order to test cytoxicity, the following cellular lines were used: MDA-MB-231 (human mammary carcinoma); MCF (human mammary carcinoma); U937—(human lymphoma); and, LS180 (human adenocarcinoma).
The test used is a 5 days proliferation test and the determination of the number of living cells was carried out by coloration with crystallin violet or crystallin purple. A 5 day proliferation test with determination of the number of living cells using the test MTT has also been carried out. Finally the acute cytotoxicity has been determined using a kit marketed by the company Boehringer Mannheim under the title “Cytotoxicity detection kit” (LDH).

P-selectin = molecular target: T1, P-selectin (Homo sapiens, UniProt P16109); experiment: cellular adhesion on immobilized P-selectin under static conditions (U 937 cells); assay type: cell-based
T1 sequence (P16109 42-830): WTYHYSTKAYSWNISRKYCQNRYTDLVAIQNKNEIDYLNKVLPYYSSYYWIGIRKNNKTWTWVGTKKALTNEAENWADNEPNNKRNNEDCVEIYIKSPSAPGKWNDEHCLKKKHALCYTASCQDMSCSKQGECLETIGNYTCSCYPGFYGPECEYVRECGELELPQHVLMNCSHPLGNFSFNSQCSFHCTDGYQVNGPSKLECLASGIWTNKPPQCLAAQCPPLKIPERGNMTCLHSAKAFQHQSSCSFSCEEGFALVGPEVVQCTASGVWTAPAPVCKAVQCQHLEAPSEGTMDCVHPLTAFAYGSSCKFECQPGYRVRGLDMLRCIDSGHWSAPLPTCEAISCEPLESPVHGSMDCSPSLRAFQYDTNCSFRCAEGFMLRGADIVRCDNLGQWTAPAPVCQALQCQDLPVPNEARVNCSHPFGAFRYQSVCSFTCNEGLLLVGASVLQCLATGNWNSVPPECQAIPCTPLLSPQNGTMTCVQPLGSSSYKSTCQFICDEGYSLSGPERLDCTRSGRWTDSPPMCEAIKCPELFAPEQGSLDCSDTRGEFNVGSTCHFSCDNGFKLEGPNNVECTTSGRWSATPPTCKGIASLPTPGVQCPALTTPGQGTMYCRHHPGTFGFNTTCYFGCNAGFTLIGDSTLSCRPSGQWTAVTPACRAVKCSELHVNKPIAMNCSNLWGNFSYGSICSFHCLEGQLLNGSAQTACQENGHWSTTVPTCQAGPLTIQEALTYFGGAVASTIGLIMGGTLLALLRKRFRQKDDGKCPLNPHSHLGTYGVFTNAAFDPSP
From the text: as §2, §3, §4, §5

factor Xa = experiment: specific anti-factor Xa test using chromogeneous substrates; assay type: biochemical
From the text: as §1

[6] = system: complement system (obtained from human serum), alternative route; experiment: inhibition of the activation of the complement by the alternative route (hemolysis of rabbit erythrocytes); assay type: biochemical; settings: for IC (50), inhibition of the complement by the alternative route: laminarin sulphate without incubation
From the text: (§7) Test 1: Measuring of the Anti-Complementary Activity
(§8) The complement system plays a key role in the inflammatory processes induced by infections. The substances which inhibit in vitro the activation of the complement are potentially in vivo anti-inflammatory products.
(§9) The activation of the complement can be carried out by the classical route in which the system antigen-antibody plays a role, or by the so-called alternative route. The anti-complementary activity of laminarin sulphate has been examined in vitro in comparison to that of the above heparin of low molecular weight used as reference (HBPM).
(§10) The evaluation of the anti-complementary reactivity is carried out by photometric or colorimetric measurement of the hemoglobin freed by lysis of the erythrocytes. The erythrocytes used are sheep antibody-sensitized erythrocytes for the classical route and rabbit erythrocytes for the altern route.
(§11) In a first step, the product to be tested and the complement system (obtained from human serum) are put into contact with one another and if necessary incubated during 30 minutes and then, in a second step, they are put into contact with the erythrocytes during 45 minutes.
(§12) The more the test product inhibits the complement, the more the lysis of the erythrocytes is weak and the less the amount of freed hemoglobin is important.
(§13) The anti-complementary activity is expressed in IC (50) (IC meaning “inhibiting concentration”) which designates the concentration expressed in […] of test substance per ml of mixture of the test substance and the serum (μg/ml), concentration which is necessary to inhibit by 50% the activity of the complement.

[7] = system: complement system (obtained from human serum), classical route; experiment: inhibition of the activation of the complement by the classical route (hemolysis of sheep antibody-sensitized erythrocytes); assay type: biochemical
From the text: as §7, §8, §9, §10, §11, §12, §13

[8] = system: polymorphnuclear neutrophiles (PMN); experiment: chemotaxy of granulocytes, Boyden Chamber test with C5a (human serum activated with Zymosan); assay type: cell-based
From the text: Test 2: Examination of the Influence on the Chemiotaxy of the Granulocytes
The polymorphnuclear neutrophiles or PMN are cells which are characteristic of the infiltrate of the acute inflammation. The movement or the migration of neutrophiles from inside of the blood vessels in direction of the tissues is provoked by molecules which are called chemotaxins. Two chemotaxins are particularly important in the case of the polynuclear neutrophiles, i.e. the fragment C5a of the complement and the interleukin 8 (IL-8). The movement of the neutrophiles can be aleatory (which means that a so called chemokinesis occurs) or can be oriented along the length of a gradient of chemotaxins.
Consequently, the ability of laminarin sulphate to inhibit the chemotaxy of […] was examined; this study has been carried out in vitro by way of the test called Test of the Boyden Chamber (a variant of the Boyden Chamber having 96 holes was used) the fragment C5a in the form of human serum activated with Zymosan having been used as chemiotaxin. As shown on FIG. 2, the Boyden Chamber comprises 2 compartments respectively 1 and 2 which are separated by a membrane 3 consisting of polycarbonate (dimension of the pores 3 μm). The pores of the said membrane authorize the active passing of the cells but not their passive diffusion.
The polymorphnuclear neutrophiles PMN are placed in the higher compartment 2 together with the substance to be tested at various doses. The C5a is placed in the lower compartment.
The measurement of the inhibition of the chemotaxy is carried out by numbering the cells which have been attracted in the lower compartment. For the numbering of the cells, they are lysed with Triton X, and the free peroxidase is then quantified by adding 2,2-azino-di-[3-ethylbenzo-thiazoline] sulfonate or ABTS marketed by Boehringer Mannheim and by measuring at 405 nm the extinction of the colored product which has been formed.

extrinsic coagulation = experiment: duration of the prothrombin coagulation test; assay type: biochemical
From the text: as §6

Xa factor = experiment: HEPTEST coagulation test; assay type: biochemical; settings: relative to heparin
From the text: as §6

thrombin [9] = experiment: duration of the thrombin coagulation test; assay type: biochemical
From the text: as §6

COc1ccc2c(c1)c(CC(=O)O)c(C)n2C(=O)c1ccc(Cl)cc1 [indomethacin, reference compound]
equipotent amount per ear for inhibition of inflammation [1]: 72 μg per ear

laminarin sulphate
anti-thrombin activity (thrombin [2]): nor an anti-thrombin activity | Inhibition expressed in % of the cellular adhesion on L-selectin ([3]; 5 μg/ml): 33 ± 1% | Inhibition expressed in % of the cellular adhesion on L-selectin ([3]; 25 μg/ml): 89 ± 10% | concentration to totally prevent the coagulation, times higher than heparin ([4]; APTT): 4 times | specific activity (IU/mg) in the APTT as % of the activity of heparin ([4]; relative to heparin): 30% | cytotoxic effect [5]: no cytotoxic effect was noticed | Inhibition expressed in % of the cellular adhesion on P-selectin (P-selectin; 5 μg/ml): 50 ± 2% | Inhibition expressed in % of the cellular adhesion on P-selectin (P-selectin; 25 μg/ml): 63 ± 3% | anti-factor Xa activity dependent from anti-thrombin (factor Xa): does not present a significant anti-factor Xa activity | times more active on the inhibition of the complement than heparin [6]: 10 times | prolongation of the activity of the complement ([6]; dose of 2.4 μg/ml): 50% | prolongation of the activity of the complement ([6]; laminarin sulphate at low concentrations): more than 100% | IC (50), inhibition of the complement by the alternative route [6]: 43 µg/mL | times more active than indomethacin from the molar point of view ([1]; 25 nMol laminarin sulphate vs 200 nMol indomethacin): nine | inhibiting activity when applied after croton oil instead of simultaneously ([1]; control experiment, applied after croton oil): no difference | efficiency compared with dexamethasone ([1]; equimolar concentration of 0.12 mmol/ear): more efficient than dexamethasone | equipotent amount per ear for inhibition of inflammation [1]: 250 μg per ear | IC (50), inhibition of the activation of the complement by the classical way [7]: 0.54 ± 0.06 µg/mL | times more active on the inhibition of the complement than heparin [7]: 80 times | inhibition of the cellular migration ([8]; 1.67 μg/ml): 50%±6% | anti-coagulant effect on the duration of prothrombin (extrinsic coagulation): no pronounced anti-coagulant effect | activity in the HEPTEST, times weaker than heparin (Xa factor): more than 20 times | concentration to totally prevent the coagulation, times higher than heparin (thrombin [9]; duration of thrombin): 20 times | specific activity (IU/mg) in the duration of thrombin as % of the activity of heparin (thrombin [9]; relative to heparin): 60%

heparin [reference compound]
Inhibition expressed in % of the cellular adhesion on L-selectin ([3]; 5 μg/ml): 15 ± 5% | Inhibition expressed in % of the cellular adhesion on L-selectin ([3]; 25 μg/ml): 32 ± 3% | Inhibition expressed in % of the cellular adhesion on P-selectin (P-selectin; 5 μg/ml): 12 ± 5% | Inhibition expressed in % of the cellular adhesion on P-selectin (P-selectin; 25 μg/ml): 30 ± 4% | IC (50), inhibition of the complement by the alternative route [6]: 464 µg/mL | IC (50), inhibition of the activation of the complement by the classical way [7]: 43.7 ± 1.9 µg/mL | inhibition of the cellular migration ([8]; 1.67 μg/ml): not inhibited | inhibition of the cellular migration ([8]; 4.2 μg/ml): 10%±5%
